Results as given in patent US3959359A, “Phenoxyalkylamines, process for their preparation and therapeutical composition containing same” (priority 1968, dated 1976).
Where two headings read alike, the source gives them in different places.

Key:
[1] = test system: rat uterus (uterine cornuae); assay: Uterine relaxant activity, inhibition of spontaneous contractions of the isolated uterus (De Jalon method); design: species or system rat (Sprague Dawley); settings: 0.5 γ/ml of bath; for uterine relaxant effect: in words
Procedure: The study was conducted on rat uterus, using the following compounds:
The conventional method of De Jalon, Bayo and De Jalon (1945). Farmacoter. act. 3, 313 -- also reported in the book : "Pharmacological Experiments on Isolated Preparations" by the staff of the Department of Pharmacology, University of Edinburgh, published by E. & S. Livingstone Ltd, London -- was used, the pharmacological investigation being conducted on the uterine cornuae of female rats (Sprague Dawley strain) kept alive in a survival liquid.
A tank containing Tyrode's solution is maintained at a constant temperature of 32°C. The test organ is suspended to a strain gauge for the purpose of recording the contractions on a potentiometric recorder. The uterine cornuae are taken from non-gravid puberal female rats having an average weight of 160 g.
The day prior to the test, the animals are administered a di-ethyl-stilboestrol injection. Postmortem, the cornuae are isolated as rapidly as possible and a 15 mm fragment from which the connective tissue has been removed is placed in the experimental cell.
During oestrum, regular spontaneous contractions (FIG. 1) are noted; such oscillations are stable within 30-60 minutes, after washing several times with suitably oxygenated Tyrode's solution.
Addition to the bath of uterine relaxant material produces, at a low dosage, a total inhibition of such spontaneous contractions.

duodenum of rats = assay: Beta-stimulant action, inhibition of acetylcholine-induced contraction of isolated duodenum; design: species or system rat (Sprague Dawley); settings: 0.1 γ/ml of bath; for % Inhibition of cholinergic contraction (beta-stimulant action): acetylcholine 0.1 γ/ml; for beta-stimulant action: in words
Procedure: A comparison was made of the beta-stimulant action of the same compounds as used in the above experiment.
The duodenum of rats (Sprague Dawley strain) weighing about 150 g is taken immediately post-mortem. The test organ is immediately placed in a suitable cell for the isolated organ (oxygenated Tyrode's solution maintained at a temperature of 37°C).
Addition of acetylcholine (0.1 γ/ml) to the bath induces a contraction of the organ which is immediately transmitted via a strain gauge to a potentiometric recording device.
Addition of a beta-stimulant material causes inhibition of this […].
A comparison was made between the actions of various materials on cholinergic contractions.

[2] = test system: isolated heart (coronary rate of flow); assay: Coronary dilator activity, Langendorff's method on the isolated heart; design: species or system rabbit (Fauve de Bourgogne); ED 50: unit not given beside the values; settings: for activation at 0.005 mg: 5 γ injected; for activation at 0.01 mg: 10 γ injected; for activation at 0.02 mg: 20 γ injected; for activation at 0.04 mg: 40 γ injected; for activation at 0.08 mg: 80 γ injected; for ED 50: 50% increase of original coronary rate of flow; for activation at 0.16 mg: 160 γ injected; for activation at 0.025 mg: 25 γ injected; for activation at 0.05 mg: 50 γ injected
Procedure: The coronary dilator activity was studied according to Langendorff's method on the isolated heart.
The tests were carried out on the hearts of young Fauve de Bourgogne (about 1.5 kg) rabbits. The hearts were rapidly taken out and maintained in surviving condition by perfusion of a physiological (Tyrode type) liquid heated at 37°C and oxygenated under a constant pressure of 50-60 cm of water. The heart was perfused countercurrently.
Volumetric determinations of the coronary rate of flow were then recorded at thirty second intervals.
After stabilization of the basic rate of flow, the test compound, dissolved in physiological saline solution, was injected in the perfusion liquid, in a volume of from 0.05 to 0.2 ml.
In the same heart, increasing dosages of all three compounds were tested by injecting alternatively a predetermined dose for each one of the three compounds.
Each injection was made 4-5 minutes after a stable rate of flow was attained.
The tests were carried out as above with three rabbits.

patients = assay: Clinical experiments in patients with anginose states or ischemic diseases of the heart; type: in vivo, human
Procedure: The compound prepared in example 4 (1-(1-hydroxypropyl)-4-[2-(1-methyl-phenethylamino)-ethoxy]-benzene hydrochloride) was experimented in four different Cardiology Services. 211 patients were treated with this compound. These patients suffered from different anginose states or from ichemic diseases of the heart (coronary failures or after-effects of infarct). […] Therefore the tolerance is excellent.

[3] = cited from earlier work
beta receptor = settings: International Conference on Duvadilan, May 1962; cited from earlier work
uterus = settings: in words; cited from earlier work
[4] = compared to Isoxsuprine; cited from earlier work
[5] = Oryctolagus cuniculus, Table I, heart A, read-out: increase of coronary rate of flow
[6] = Oryctolagus cuniculus, Table I, heart B, read-out: increase of coronary rate of flow
[7] = Oryctolagus cuniculus, Table II, heart No. 1, read-out: increase of coronary rate of flow
[8] = Oryctolagus cuniculus, Table II, heart No. 2, read-out: increase of coronary rate of flow
[9] = Oryctolagus cuniculus, Table II, heart No. 3, read-out: increase of coronary rate of flow

**Q.** With `CC(COc1ccccc1)NC(C)C(O)c1ccccc1` (centres unmarked) [Compound D, reference compound] as the compound, how does the “% Inhibition of spontaneous uterine contractions” value [1] read?
**A.** 70%

**Q.** And the uterine relaxant effect [1]?
**A.** reduced uterine relaxant effect

**Q.** And the “% Inhibition of cholinergic contraction (beta-stimulant action)” value (shortened to “% Inhibition of cholinergic contraction”) (duodenum of rats)?
**A.** 100%

**Q.** And the beta-stimulant action (duodenum of rats)?
**A.** highly beta-stimulant action

**Q.** Which activation at 0.005 mg [2, 5] does the source give for `CCC(=O)c1ccc(OCCNC(C)Cc2ccccc2)cc1` (centres unmarked) [Example 1, 4-[2-(1-methyl-phenethylamino)-ethoxy]-propiophenone] here?
**A.** 12%

**Q.** And the activation at 0.01 mg [2, 5]?
**A.** 34%

**Q.** What about the activation at 0.02 mg [2, 5] of the same compound?
**A.** 47%

**Q.** What about the activation at 0.04 mg [2, 5] of the same compound?
**A.** 50%

**Q.** And the activation at 0.08 mg [2, 5]?
**A.** 80.5%

**Q.** And the activation at 0.01 mg [2, 6]?
**A.** 8%

**Q.** And the activation at 0.02 mg [2, 6]?
**A.** 37%

**Q.** And the activation at 0.04 mg [2, 6]?
**A.** 50%

**Q.** And the activation at 0.08 mg [2, 6]?
**A.** 62%

**Q.** What about the “ED 50” value ([2]; Table I, heart A) of the same compound?
**A.** 27 γ

**Q.** And the “ED 50” value ([2]; Table I, heart B)?
**A.** 44 γ

**Q.** What about the “% Inhibition of spontaneous uterine contractions” value [1] of the same compound?
**A.** 0%

**Q.** And the uterine relaxant effect [1]?
**A.** absolutely no uterine relaxant effect

**Q.** What about the “% Inhibition of cholinergic contraction” value (duodenum of rats) of the same compound?
**A.** 15%

**Q.** And the beta-stimulant action (duodenum of rats)?
**A.** only a slight beta-stimulant effect

**Q.** Which results are given for `CCC(O)c1ccc(OCCNC(C)Cc2ccccc2)cc1` (centres unmarked) [Example 4, 1-(1-hydroxy-propyl)-4[2-(1-methyl-phenethylamino)-ethoxy]-benzene]?
**A.** activation at 0.002 mg ([2]; Oryctolagus cuniculus, Table I, heart A, 2 γ injected, read-out: increase of coronary rate of flow): 10%; activation at 0.005 mg [2, 5]: 30%; activation at 0.01 mg [2, 5]: 33%; activation at 0.02 mg [2, 5]: 67%; activation at 0.04 mg [2, 5]: 93%; activation at 0.01 mg [2, 6]: 11%; activation at 0.02 mg [2, 6]: 30%; activation at 0.04 mg [2, 6]: 55%; activation at 0.08 mg [2, 6]: 78%; activation at 0.04 mg [2, 7]: 33%; activation at 0.08 mg [2, 7]: 54%; activation at 0.16 mg [2, 7]: 78%; activation at 0.01 mg [2, 8]: 33%; activation at 0.02 mg [2, 8]: 50%; activation at 0.04 mg [2, 8]: 80%; activation at 0.02 mg [2, 9]: 17%; activation at 0.04 mg [2, 9]: 46%; activation at 0.08 mg [2, 9]: 50%; activation at 0.16 mg [2, 9]: 75%; ED 50 ([2]; Table I, heart A): 11 γ; ED 50 ([2]; Table I, heart B): 35 γ; % Inhibition of spontaneous uterine contractions [1]: 0%; uterine relaxant effect [1]: absolutely no uterine relaxant effect; % Inhibition of cholinergic contraction (beta-stimulant action) (duodenum of rats): 15%; beta-stimulant action (duodenum of rats): only a slight beta-stimulant effect; contra-indication (patients; 211 patients): no contra-indication; modification of cardiac frequency and arterial pressure (patients; 211 patients): no modification of the cardiac frequency and of the arterial pressure; tolerance (patients; 211 patients): excellent; favourable results (number of patients) (patients; 211 patients treated): 172 patients; favourable results (share of patients) (patients; 211 patients treated): 81.5%

**Q.** With `CCCC(=O)c1ccc(OCCNC(C)Cc2ccccc2)cc1` (centres unmarked) [Example 5, 4-[2-(1-methyl-phenethylamino)-ethoxy]-butyrophenone] as the compound, how does the activation at 0.01 mg [2, 5] read?
**A.** 21%

**Q.** And the activation at 0.025 mg [2, 5]?
**A.** 57%

**Q.** What about the activation at 0.05 mg [2, 5] of the same compound?
**A.** 64%

**Q.** What about the activation at 0.01 mg [2, 6] of the same compound?
**A.** 16%

**Q.** What about the activation at 0.025 mg [2, 6] of the same compound?
**A.** 39%

**Q.** What about the activation at 0.05 mg [2, 6] of the same compound?
**A.** 50%

**Q.** What about the “ED 50” value ([2]; Table I, heart A) of the same compound?
**A.** 24 γ

**Q.** And the “ED 50” value ([2]; Table I, heart B)?
**A.** 45 γ

**Q.** For `CC(COc1ccccc1)NC(C)C(O)c1ccc(O)cc1` (centres unmarked) [Isoxsuprine, 1-(p-hydroxyphenyl)-2-(1-methyl-2 phenoxyethylamino) propanol-1, reference compound], which activation at 0.04 mg [2, 7] is on record?
**A.** 8%

**Q.** And the activation at 0.08 mg [2, 7]?
**A.** 20%

**Q.** And the activation at 0.16 mg [2, 7]?
**A.** 50%

**Q.** And the activation at 0.02 mg [2, 8]?
**A.** 17%

**Q.** And the activation at 0.04 mg [2, 8]?
**A.** 43%

**Q.** What about the activation at 0.08 mg [2, 8] of the same compound?
**A.** 60%

**Q.** And the activation at 0.04 mg [2, 9]?
**A.** 0%

**Q.** And the activation at 0.08 mg [2, 9]?
**A.** 17%

**Q.** What about the activation at 0.16 mg [2, 9] of the same compound?
**A.** 33%

**Q.** What about the activation at 0.32 mg ([2]; Oryctolagus cuniculus, Table II, heart No. 3, 320 γ injected, read-out: increase of coronary rate of flow) of the same compound?
**A.** 50%

**Q.** What about the activation at 0.64 mg ([2]; Oryctolagus cuniculus, Table II, heart No. 3, 640 γ injected, read-out: increase of coronary rate of flow) of the same compound?
**A.** 75%

**Q.** What about the “% Inhibition of spontaneous uterine contractions” value [1] of the same compound?
**A.** 100%

**Q.** What about the uterine relaxant effect [1] of the same compound?
**A.** total uterine relaxant action

**Q.** What about the “% Inhibition of cholinergic contraction” value (duodenum of rats) of the same compound?
**A.** 100%

**Q.** What about the beta-stimulant action (duodenum of rats) of the same compound?
**A.** highly beta-stimulant action

**Q.** What about the ventricular stimulability ([3]; in view of beta-stimulant properties) of the same compound?
**A.** increases ventricular stimulability

**Q.** What about the “possible occurrence of extrasystoles” value ([3]; particularly ventricular extrasystoles) of the same compound?
**A.** increases also the possible occurrence of extrasystoles

**Q.** And the “mechanism of uterine relaxant activity” value (beta receptor)?
**A.** essentially due to beta receptor activation

**Q.** For `CC(COc1ccccc1)NC(C)Cc1ccccc1` (centres unmarked) [N-(2-phenyl-1-methyl-ethyl)-2-phenoxy-1-methyl-ethylamine], which uterus relaxant activity (uterus) is on record?
**A.** uterus relaxants

**Q.** What about the vasodilator activity [4] of the same compound?
**A.** reduced vasodilator activity compared to Isoxsuprine
